Experimental data reported in ChEMBL document CHEMBL5260798, “Structural Analysis of Chemokine Receptor-Ligand Interactions” (J Med Chem, 2017).
One block for each compound: values may come before it.

Assays:
[1] = biological target: T1, C-X-C chemokine receptor type 2 (Homo sapiens, UniProt P25025); assay: Binding affinity to wild type human CXCR2 assessed as dissociation constant
T1 sequence (P25025 whole entry): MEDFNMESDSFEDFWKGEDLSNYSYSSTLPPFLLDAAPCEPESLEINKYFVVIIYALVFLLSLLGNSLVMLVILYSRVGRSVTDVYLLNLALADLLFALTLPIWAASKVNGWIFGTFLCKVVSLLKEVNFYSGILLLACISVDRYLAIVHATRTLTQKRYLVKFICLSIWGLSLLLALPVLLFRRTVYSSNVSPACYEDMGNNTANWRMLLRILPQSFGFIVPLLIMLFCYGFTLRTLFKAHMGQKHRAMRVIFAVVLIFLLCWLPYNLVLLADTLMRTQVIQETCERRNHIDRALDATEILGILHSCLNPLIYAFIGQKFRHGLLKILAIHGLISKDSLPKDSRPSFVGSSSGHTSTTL

[2] = biological target: C-C chemokine receptor type 2 (Homo sapiens, UniProt P41597); assay: Binding affinity to CCR2 (unknown origin) assessed as inhibition constant
C-C chemokine receptor type 2, sequence (P41597 whole entry): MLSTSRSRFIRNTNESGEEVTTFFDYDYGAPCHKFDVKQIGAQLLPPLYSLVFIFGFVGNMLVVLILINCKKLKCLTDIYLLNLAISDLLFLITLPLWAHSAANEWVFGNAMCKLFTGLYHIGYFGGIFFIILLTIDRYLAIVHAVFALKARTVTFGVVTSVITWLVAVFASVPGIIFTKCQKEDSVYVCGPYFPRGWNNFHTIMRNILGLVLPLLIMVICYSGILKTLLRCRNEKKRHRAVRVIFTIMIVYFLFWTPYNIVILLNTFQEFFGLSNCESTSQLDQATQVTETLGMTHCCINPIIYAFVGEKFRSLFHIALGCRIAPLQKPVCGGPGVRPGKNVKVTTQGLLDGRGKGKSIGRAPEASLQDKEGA

[3] = biological target: C-X-C chemokine receptor type 4 (Homo sapiens, UniProt P61073); assay: Binding affinity to CXCR4 (unknown origin) assessed as inhibition constant
C-X-C chemokine receptor type 4, sequence (P61073 whole entry): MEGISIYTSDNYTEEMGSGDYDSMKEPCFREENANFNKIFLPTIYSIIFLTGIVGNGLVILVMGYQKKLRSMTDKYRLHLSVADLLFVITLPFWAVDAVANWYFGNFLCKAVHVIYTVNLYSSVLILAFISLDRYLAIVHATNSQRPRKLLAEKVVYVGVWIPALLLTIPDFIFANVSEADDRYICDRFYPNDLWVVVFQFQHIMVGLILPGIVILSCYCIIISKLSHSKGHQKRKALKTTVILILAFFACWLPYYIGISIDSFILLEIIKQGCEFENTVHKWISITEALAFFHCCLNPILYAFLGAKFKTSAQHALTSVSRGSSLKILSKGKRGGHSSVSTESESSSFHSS

[4] = Inhibition of CXCR4-Y251A mutant (unknown origin); parameters: species or system Homo sapiens
[5] = biological target: T2, C-X-C chemokine receptor type 3 (Homo sapiens, UniProt P49682); assay: Inhibition of human wild type CXCR3
T2 sequence (P49682 whole entry): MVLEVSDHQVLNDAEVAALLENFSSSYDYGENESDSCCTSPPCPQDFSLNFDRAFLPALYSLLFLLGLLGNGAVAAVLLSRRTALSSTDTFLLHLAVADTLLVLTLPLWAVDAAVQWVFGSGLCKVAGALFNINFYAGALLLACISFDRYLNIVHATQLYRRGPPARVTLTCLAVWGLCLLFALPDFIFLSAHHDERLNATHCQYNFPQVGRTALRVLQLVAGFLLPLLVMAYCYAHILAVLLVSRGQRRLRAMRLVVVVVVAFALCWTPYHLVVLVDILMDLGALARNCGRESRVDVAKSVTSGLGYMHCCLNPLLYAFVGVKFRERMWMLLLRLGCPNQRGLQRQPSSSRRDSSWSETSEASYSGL

[6] = biological target: C-C chemokine receptor type 8 (Homo sapiens, UniProt P51685); assay: Inhibition of CCR8 mutant (unknown origin)
C-C chemokine receptor type 8, sequence (P51685 whole entry, looked up, change not shown): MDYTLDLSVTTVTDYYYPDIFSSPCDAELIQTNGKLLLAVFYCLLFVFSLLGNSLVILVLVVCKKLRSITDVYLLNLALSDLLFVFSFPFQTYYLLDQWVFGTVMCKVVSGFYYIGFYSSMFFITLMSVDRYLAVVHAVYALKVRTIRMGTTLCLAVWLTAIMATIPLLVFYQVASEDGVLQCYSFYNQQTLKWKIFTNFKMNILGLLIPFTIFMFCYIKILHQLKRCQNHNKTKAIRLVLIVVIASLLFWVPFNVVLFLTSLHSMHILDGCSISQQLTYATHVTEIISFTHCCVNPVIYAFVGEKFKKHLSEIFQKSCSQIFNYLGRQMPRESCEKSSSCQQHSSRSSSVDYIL

[7] = biological target: T2, C-X-C chemokine receptor type 3; assay: Inhibition of human recombinant CXCR3
[8] = Binding affinity to CXCR4-Y251A mutant (unknown origin) assessed as […]; parameters: species or system Homo sapiens
[9] = biological target: T3, C-C chemokine receptor type 5 (Homo sapiens, UniProt P51681); assay: Inhibition of wild type CCR5 (unknown origin)
T3 sequence (P51681 whole entry): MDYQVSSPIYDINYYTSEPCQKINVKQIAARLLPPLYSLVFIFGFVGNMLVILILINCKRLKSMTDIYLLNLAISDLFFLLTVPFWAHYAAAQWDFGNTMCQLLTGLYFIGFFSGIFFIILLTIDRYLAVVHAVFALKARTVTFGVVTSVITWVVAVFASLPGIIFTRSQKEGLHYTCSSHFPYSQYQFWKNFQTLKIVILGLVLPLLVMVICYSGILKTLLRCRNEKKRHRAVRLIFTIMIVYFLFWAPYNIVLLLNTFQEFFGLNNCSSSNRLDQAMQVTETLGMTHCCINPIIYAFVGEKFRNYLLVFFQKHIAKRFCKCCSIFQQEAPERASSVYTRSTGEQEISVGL

[10] = biological target: T3, C-C chemokine receptor type 5; assay: Inhibition of human CCR5

SMILES: CC[C@@H](NC1C(=O)C(=O)C1Nc1cccc(C(=O)N(C)C)c1O)c1ccc(C)o1 (some centres not stated)
Kd [1]: 10000 µM

SMILES: O=C(/C=C/c1ccc(Cl)c(Cl)c1)NCCCCCN1CCC(c2c[nH]c3ccc(O)cc23)CC1
Ki [2]: 0.1 µM

SMILES: c1cc(CN2CCCNCCNCCCNCC2)cc(CN2CCCNCCNCCCNCC2)n1
Ki [3]: 0.85 µM

SMILES: C[C@H](NC(=O)[C@H](CCCNC(=N)N)NC(=O)c1ccc(CNCc2ccccn2)cc1)c1cccc2ccccc12
Ki [3]: 8 µM

SMILES: CCO/N=C(\c1ccc(Br)cc1)C1CCN(C2(C)CCN(C(=O)c3c(C)cc[n+]([O-])c3C)CC2)CC1 [ANCRIVIROC]
IC50 [8]: 0.016 µM

SMILES: CCCN(CCC)CCCCN(C)Cc1ccc(CN(Cc2ncc[nH]2)Cc2nccn2C)cc1
Ki [3]: 0.00061 µM

SMILES: C1CNCCNCCCN(CCCN2CCCNCCNCCCNCC2)CCNC1
Ki [3]: 0.18 µM

SMILES: Cc1nnc(C(C)C)n1[C@H]1C[C@H]2CC[C@@H](C1)N2CC[C@H](NC(=O)C1CCC(F)(F)CC1)c1ccccc1 [MARAVIROC]
IC50 [4]: 0.0002 µM

SMILES: CC(=O)N1CCC(C(=O)N(CCCN2CCC(Cc3ccc(C(N)=O)cc3)CC2)c2ccc(C)c(Cl)c2)CC1
IC50 [4]: 0.02 µM

SMILES: O=CNC(=C(Cl)Cl)[P+](c1ccccc1)(c1ccccc1)c1ccccc1.[O-][Cl+3]([O-])([O-])[O-]
IC50 [8]: 27 µM

SMILES: C[C@H](CO)Nc1nc(SCc2cccc(F)c2F)nc2[nH]c(=O)cnc12
Kd [1]: 1 µM

SMILES: CCCC[C@H]1C[C@@H](N(C)C(C)C)CC[C@H]1NC(=O)CNC(=O)c1cccc(C(F)(F)F)c1
IC50 [9]: 0.0025 µM

SMILES: C(CCCN1CCCNCCNCCCNCC1)CCN1CCCNCCNCCCNCC1
Ki [3]: 2.3 µM

SMILES: COc1ccccc1Oc1cccc(CN2CCC(O)(c3ccccc3C(=O)O)CC2)c1
pIC50 [6]: 7.5

SMILES: NCCCC[C@H](NC(=O)[C@@H]1Cc2ccccc2CN1C(=O)CCC(=O)c1ccccc1)C(=O)NCC(c1ccccc1)c1ccccc1
IC50 [5]: 1 µM

SMILES: O=C(C1=C(O)C(=O)N(c2nnc(SCc3ccc(Cl)cc3)s2)C1c1cccs1)c1cc2ccccc2o1 (configuration not stated)
IC50 [10]: 2 µM

The next lines start with the values.

IC50 [4]: 0.019 µM
Ki [2]: 0.0631 µM
pIC50 [5]: 4.5
SMILES: Cc1ccc(-c2ccc3c(c2)C=C(C(=O)Nc2ccc(C[N+](C)(C)C4CCOCC4)cc2)CCC3)cc1.[Cl-]

pIC50 [6]: 7.3
SMILES: COc1ccccc1Oc1cccc(CN2CCC(NC(=O)C3CC(=O)Nc4ccccc43)CC2)c1 (configuration not stated)

IC50 [7]: 0.0631 µM
IC50 [5]: 0.0631 µM
SMILES: CCOc1ccc(-n2c([C@@H](C)N(Cc3cccnc3)C(=O)Cc3ccc(F)c(C(F)(F)F)c3)nc3ncccc3c2=O)cc1

pIC50 [6]: 7.8
SMILES: CCNS(=O)(=O)c1ccc(OC)cc1C1(O)CCN(Cc2cccc(Oc3ccccc3OC)c2)CC1

IC50 [7]: 0.0158 µM
IC50 [5]: 0.0158 µM
SMILES: CCNC(=O)c1cnc(N2CCN(C3CCN(Cc4ccc(Cl)cc4)CC3)[C@@H](CC)C2)c(Cl)c1

Ki [2]: 0.316 µM
SMILES: Cc1ccc(CN2CC[C@@H](NC(=O)CNC(=O)c3cccc(C(F)(F)F)c3)C2)c(C)c1

IC50 [4]: 0.0167 µM
SMILES: CCCCN1C(=O)[C@H](CC2CCCCC2)NC(=O)C12CCN(Cc1ccc(Oc3ccc(C(=O)O)cc3)cc1)CC2
